From ChEMBL document CHEMBL3608255 (ACS Med Chem Lett, 2015)

Experiments:
MV4-11 = assay: Cytotoxicity against human MV4-11 cells after 24 hrs by CellTiter-Blue assay; assay type: functional; conditions: MV4-11, 24 h
[1] = target: Bromodomain-containing protein 4 (Homo sapiens, UniProt O60885); assay: Binding affinity to BRD4 (unknown origin) expressed in Escherichia coli BL21 after 1 hr by proprietary competition assay
[2] = target: Serine/threonine-protein kinase PLK1 (Homo sapiens, UniProt P53350); assay: Binding affinity to PLK1 (unknown origin) expressed in HEK293 cells after 1 hr by proprietary competition assay; assay type: cell-based
Serine/threonine-protein kinase PLK1, sequence (P53350 whole entry): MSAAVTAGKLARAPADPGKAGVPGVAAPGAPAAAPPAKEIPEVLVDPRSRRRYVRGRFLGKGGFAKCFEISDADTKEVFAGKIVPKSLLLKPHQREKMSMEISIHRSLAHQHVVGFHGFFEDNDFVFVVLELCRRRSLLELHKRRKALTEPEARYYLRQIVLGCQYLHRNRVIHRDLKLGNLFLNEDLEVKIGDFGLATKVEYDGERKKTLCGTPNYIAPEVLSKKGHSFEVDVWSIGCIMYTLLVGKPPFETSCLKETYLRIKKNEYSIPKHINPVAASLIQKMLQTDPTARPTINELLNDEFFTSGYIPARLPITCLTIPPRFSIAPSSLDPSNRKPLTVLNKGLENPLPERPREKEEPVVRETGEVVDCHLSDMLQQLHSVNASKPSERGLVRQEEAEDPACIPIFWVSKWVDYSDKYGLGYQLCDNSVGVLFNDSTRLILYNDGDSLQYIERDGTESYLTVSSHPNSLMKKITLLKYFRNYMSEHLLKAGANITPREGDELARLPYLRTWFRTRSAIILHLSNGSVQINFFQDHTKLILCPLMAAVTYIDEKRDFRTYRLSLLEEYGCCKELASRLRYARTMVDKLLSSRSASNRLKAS

SMILES | GI50 (MV4-11) [nM] | Ki [1] [nM] | Ki [2] [nM]
C[C@@H](Oc1cc(-n2cnc3ccc(CN4CCN(C)CC4)cc32)sc1C(N)=O)c1ccccc1C(F)(F)F [GSK-461364] | 679 |  | 
CC[C@@H]1C(=O)N(C)c2cnc(Oc3ccc(C(=O)NC4CCN(C)CC4)cc3OC)nc2N1C1CCCC1 | 1340 | 99 | 240
CC[C@@H]1C(=O)N(C)c2cnc(Nc3ccc(C(=O)NC4CCN(C)CC4)c(OC)c3)nc2N1C1CCCC1 | 15 | 37 | 0.52
CC[C@@H]1C(=O)N(C)c2cnc(Nc3ccc(C(=O)NC4CCN(C)CC4)cc3OC)nc2N1Cc1cccc(Br)c1 | 675 | 8.7 | 5.8
CC[C@@H]1C(=O)N(C)c2cnc(Nc3ccc(C(=O)NC4CCN(C)CC4)cc3OCC(C)C)nc2N1C1CCCC1 | 154 | 29 | 
CC[C@@H]1C(=O)N(C)c2cnc(Nc3ccc(C(=O)NC4CCN(C)CC4)cc3)nc2N1C1CCCC1 | 3 | 60 | 
COc1cc(C(=O)NC2CCN(C)CC2)ccc1Nc1ncc2c(n1)N(C1CCCC1)[C@H](Cc1ccccc1)C(=O)N2C | 1870 | > 10000 | 4.2
CC[C@@H]1C(=O)N(Cc2ccccc2)c2cnc(Nc3ccc(C(=O)NC4CCN(C)CC4)cc3OC)nc2N1C1CCCC1 | 7280 | > 10000 | 
CC[C@@H]1C(=O)N(C)c2cnc(Nc3ccc(C(=O)NC4CCN(C)CC4)cc3OC)nc2N1CC(C)C | 40 | 970 | 6.95
CC[C@@H]1C(=O)N(C)c2cnc(Nc3ccc(C(=O)NC4CCN(C)CC4)cc3OCc3ccccc3)nc2N1C1CCCC1 | 356 | 100 | 
CC[C@H]1C(=O)N(C)c2cnc(Nc3ccc(C(=O)NC4CCN(C)CC4)cc3OC)nc2N1C1CCCC1 | 19 |  | 
CC[C@@H]1C(=O)N(C)c2cnc(Nc3ccc(C(=O)NC4CCN(C)CC4)cc3F)nc2N1C1CCCC1 | 4 | 46 | 
CC[C@@H]1C(=O)N(C)c2cnc(Nc3ccc(C(=O)NC4CCN(C)CC4)cc3OC)nc2N1C1CCCC1 [BI-2536] | 15.2 |  | 
Cc1sc2c(c1C)C(c1ccc(Cl)cc1)=N[C@@H](CC(=O)OC(C)(C)C)c1nnc(C)n1-2 | 80 |  | 
CC[C@@H]1C(=O)N(CC(C)C)c2cnc(Nc3ccc(C(=O)NC4CCN(C)CC4)cc3OC)nc2N1C1CCCC1 | 2530 | > 10000 | 
CC[C@@H]1C(=O)N(C(C)C)c2cnc(Nc3ccc(C(=O)NC4CCN(C)CC4)cc3OC)nc2N1C1CCCC1 | 2670 | 4500 | 
COc1cc(C(=O)NC2CCN(C)CC2)ccc1Nc1ncc2c(n1)N(C1CCCC1)CC(=O)N2C | 219 | 1400 | 
CC[C@@H]1C(=O)N(C)c2cnc(Nc3ccc(C(=O)NC4CCN(C)CC4)cc3OC3CCCC3)nc2N1C1CCCC1 | 240 | 27 | 0.84
CC[C@@H]1C(=O)N(CC)c2cnc(Nc3ccc(C(=O)NC4CCN(C)CC4)cc3OC)nc2N1C1CCCC1 | 392 | 470 | 0.91
CC[C@@H]1C(=O)Nc2cnc(Nc3ccc(C(=O)NC4CCN(C)CC4)cc3OC)nc2N1C1CCCC1 | 219 | 7950 | 
